According to patent publication US8071367B2, “Selecting, culturing and creating lineage committed hematopoietic stem cells” (Commonwealth Scientific and Industrial Research Organisation, priority 2005, dated 2011):
Where no end group is shown, it is not given here.

Tested on: CB CD34+CD38− HSC
Experiment: In vitro proliferation of sorted cord blood CD34+CD38− HSC with 6 growth factor stimulation, cells counted after 6 days
Type: cell-based, human
Conditions: 300 per well, Cellgro supplemented with 6 factors, after 6 d, versus 6 factors alone
Description: Human cord blood cells were sorted by FACS and plated into cell culture wells (300 cells/well) in the presence of Cellgro supplemented with 6 growth factors G-CSF, […], FL-T3 ligand, (FLT3-L), MGDF (all 100 ng/ml), IL-6 and IL-3 (both 10 ng/ml). In addition, α9β1 antibody (Chemicon), thrombin-cleaved bovine Opn (R & D Systems, Minneapolis, Minn., USA), or Opn inhibiting peptide [SVVYGLR-NH2] (Auspep) (SEQ ID NO:1) were added. All cells were cultured at 37° C. in 5% O2, 10% CO2 and 85% N2. Cells were grown for 6 days prior to counting.
Thrombin-cleaved Opn was prepared by incubating 24 μg bovine Opn in 20 mM Tris-HCl (pH 7.6), 80 mM NaCl, 2 mM CaCl2 and 0.1 units of thrombin (CSL, Parkville, Australia), for 10 min at 37° C.

For SVVYGLR-NH2 [osteopontin peptide], which cell proliferation is on record?
The cell proliferation was “significant inhibition of cell proliferation”.
